Data as given in patent US20110269942A1, “ANTIBODIES MODIFIED WITH HYDROPHOBIC MOLECULE” (DAIICHI SANKYO COMPANY, LIMITED, priority 2007, published 2011).

How the values were obtained:
[1] = biological target: human DR5 (death receptor 5) (human) (UniProt O14763); assay: cell-based or functional assay
Jurkat cells = assay: Apoptosis-inducing activity of hydrophobic molecule-modified antibodies against Jurkat cells (cell viability from ATP level; method of Test Example 13); type: cell-based, human; details: 72 hr
BxPC-3 cells = assay: Apoptosis-inducing activity of hydrophobic molecule-modified antibodies against BxPC-3 cells (cell viability from ATP level); type: cell-based, human
[2] = test system: human colon cancer strain COLO 205; assay: Antitumor activity against human colon cancer strain COLO 205-transplanted nude mice (tumor volume, rate of tumor growth); type: in vivo, nude mice BALB/cA Jcl-nu; details: 0.33 mg/ml, 0.1 ml per 10 g body weight i.v., Days 8, 11, 13, 15, 18, 20, 22, 25, 27
Description: The in-vivo antitumor activity of the immunoliposome prepared in Example 5 was studied. 2×10^6 cells of a human colon cancer strain COLO 205 (purchased from American Type Culture Collection) which was confirmed by quarantine to have no detectable mouse pathogenic microorganisms were hypodermically transplanted to the axillary region of nude mice BALB/cA Jcl-nu (CLEA Japan, Inc.). The immunoliposome of Example 5 was diluted, immediately before its administration, with saline (Otsuka Pharmaceutical Co., Ltd.) to 1 and 0.33 mg/ml in terms of antibody concentrations. Seven days after the transplantation, the administration of the immunoliposome of Example 5 to COLO 205 cancer-bearing mice in which the tumor successfully grafted was started. […]
The major axis and minor axis of the transplanted tumor were measured two to three times a week using an electronic vernier caliper (CD-15C; Mitutoyo Corp.). The tumor volume was determined according to the following calculation formula:
Tumor volume (mm^3)=½×minor axis^2 (mm)×major axis (mm).
Moreover, the rate of tumor growth (mm^3/day) of each individual was calculated, and the statistically significant difference was tested by a Dunnett test using the value. In this context, a P value less than 0.05 was regarded as being a significant difference among groups. […]

[3] = test system: human malignant melanoma cell strain A2058 cells; assay: Apoptosis-inducing activity of immunoliposomes against A2058 cells (cell viability from ATP level); type: cell-based; details: antibody not conjugated to an immunoliposome
Description: (§1) Jurkat cells were counted by a trypan blue staining method, and the concentration was then adjusted to 1×10^5 cells/ml with a DMEM medium (manufactured by Invitrogen Corp.; hereinafter, referred to as a DMEM medium) containing 10% fetal calf serum (manufactured by Hyclone Laboratories, Inc.). […] To this microplate, the cell suspension was inoculated in an amount of 50 μl (5×10^3 cells)/well. The plate was cultured at 37° C. for 72 hr in the presence of 5% carbon dioxide, and the ATP level of each well was measured. […] Then, the supernatant was transferred in an amount of 100 μl/well to a 96-well white microplate (manufactured by Corning Inc.), and luminescence from each well was measured using a luminometer (manufactured by Molecular Devices Corp.). […] The cell viability of each well was calculated according to the following equation:
(§2) Cell viability (%)=(Luminescence intensity of test wells−Average luminescence intensity of background wells)/(Average luminescence intensity of negative control wells−Average luminescence intensity of background wells)×100.
The apoptosis-inducing activities against human malignant melanoma cell strain A2058 cells were measured according to the method described in Test Example 1.

[4] = test system: human malignant melanoma cell strain A375 cells; assay: Apoptosis-inducing activity of immunoliposomes against A375 cells (cell viability from ATP level); type: cell-based; details: antibody not conjugated to an immunoliposome
Description: as §1, §2
The apoptosis-inducing activities against human malignant melanoma cell strain A375 cells were measured according to the method described in Test Example 1.

human Fas = biological target: T1, human Fas (human, UniProt P25445 26-335); assay: cell-based or functional assay
T1 sequence (looked up): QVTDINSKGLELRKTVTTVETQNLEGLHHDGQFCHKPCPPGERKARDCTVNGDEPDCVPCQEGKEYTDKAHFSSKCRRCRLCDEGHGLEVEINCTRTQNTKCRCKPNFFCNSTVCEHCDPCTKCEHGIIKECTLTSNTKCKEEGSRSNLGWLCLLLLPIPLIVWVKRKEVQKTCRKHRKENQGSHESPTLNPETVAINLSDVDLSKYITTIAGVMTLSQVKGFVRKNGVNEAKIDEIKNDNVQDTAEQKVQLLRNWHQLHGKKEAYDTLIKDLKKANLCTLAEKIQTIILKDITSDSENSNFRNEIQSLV

DSPE-PEG2000-modified MAB631 Fullbody of Example 49 (antibody)
EC50 (concentration exhibiting 50% cell viability), Jurkat cells, Test Example 20 [1]: 0.025 ng/mL | cell viability (Jurkat cells) [1]: < 10% | EC50 relative to Ab, Jurkat cells, Test Example 20 ([1]; scale: fold): 58.4

Example 32: DSPE-PEG2000-modified hTRA-8 Fab′ (Cys), reaction ratio 1:4
apoptosis-inducing activity compared with that of secondary antibody-cross-linked hTRA-8 (Jurkat cells): stronger

Example 33: DSPE-PEG2000-modified hTRA-8 Fullbody (Lys), reaction ratio 1:1
apoptosis-inducing activity compared with that of secondary antibody-cross-linked hTRA-8 (Jurkat cells): stronger

Example 34: DSPE-PEG2000-modified hTRA-8 Fullbody (Lys), reaction ratio 1:4
apoptosis-inducing activity compared with that of secondary antibody-cross-linked hTRA-8 (Jurkat cells): stronger

Example 35: DSPE-PEG2000-modified hTRA-8 Fullbody (Lys), reaction ratio 1:12
apoptosis-inducing activity compared with that of secondary antibody-cross-linked hTRA-8 (Jurkat cells): stronger

Example 36: DSPE-PEG2000-modified hTRA-8 Fullbody (Cys), reaction ratio 1:10
apoptosis-inducing activity compared with that of secondary antibody-cross-linked hTRA-8 (Jurkat cells): stronger

Example 37: DSPE-PEG2000-modified hTRA-8 Fab′ (Cys), reaction ratio 1:1
apoptosis-inducing activity compared with that of secondary antibody-cross-linked hTRA-8 (Jurkat cells): equivalent to or stronger | apoptosis-inducing activity compared with that of secondary antibody-cross-linked hTRA-8 (BxPC-3 cells): stronger

Example 38: DSPE-PEG10000-modified hTRA-8 Fab′ (Cys)
apoptosis-inducing activity compared with that of secondary antibody-cross-linked hTRA-8 (Jurkat cells): equivalent to or stronger

Example 39: DPPE-PEG2000-modified hTRA-8 Fab′ (Cys)
apoptosis-inducing activity compared with that of secondary antibody-cross-linked hTRA-8 (Jurkat cells): equivalent to or stronger

Example 40: Chol-PEG5000-modified hTRA-8 Fab′ (Cys)
apoptosis-inducing activity compared with that of secondary antibody-cross-linked hTRA-8 (Jurkat cells): equivalent to or stronger

Example 41: DSPE-PEG10000-modified hTRA-8 Fullbody (Lys)
apoptosis-inducing activity compared with that of secondary antibody-cross-linked hTRA-8 (Jurkat cells): stronger

Example 42: DPPE-PEG2000-modified hTRA-8 Fullbody (Lys)
apoptosis-inducing activity compared with that of secondary antibody-cross-linked hTRA-8 (Jurkat cells): stronger

Example 43: Chol-PEG5000-modified hTRA-8 Fullbody (Lys)
apoptosis-inducing activity compared with that of secondary antibody-cross-linked hTRA-8 (Jurkat cells): stronger

Example 45: DSPE-PEG3400-modified hTRA-8 Fullbody (Lys)
apoptosis-inducing activity compared with that of secondary antibody-cross-linked hTRA-8 (Jurkat cells): stronger

Example 46: DSPE-PEG5000-modified hTRA-8 Fullbody (Lys), reaction ratio 1:2
apoptosis-inducing activity compared with that of secondary antibody-cross-linked hTRA-8 (Jurkat cells): stronger | apoptosis-inducing activity compared with that of secondary antibody-cross-linked hTRA-8 (BxPC-3 cells): stronger

Example 47: DSPE-PEG2000-modified hTRA-8 Fullbody (Lys), reaction ratio 1:1, large scale
antitumor activity (rate of tumor growth, Dunnett test) [2]: antitumor activity with a statistically significant difference

Example 48: DSPE-PEG2000-modified hTRA-8 F(ab′)2 (Lys)
apoptosis-inducing activity compared with that of secondary antibody-cross-linked hTRA-8 (BxPC-3 cells): stronger

Example 52: PEG2000-modified hTRA-8 Fullbody (Lys), hydrophobic molecule-free, water-soluble linker-modified antibody
apoptosis-inducing activity (in words) (BxPC-3 cells; 1000, 100, 10, or 1 ng/ml): weak

Example 53: PEG5000-modified hTRA-8 Fullbody (Lys), hydrophobic molecule-free, water-soluble linker-modified antibody
apoptosis-inducing activity (in words) (BxPC-3 cells; 1000, 100, 10, or 1 ng/ml): weak

Example 54: PEG2000-modified hTRA-8 Fab′ (Cys), hydrophobic molecule-free, water-soluble linker-modified antibody
apoptosis-inducing activity (in words) (BxPC-3 cells; 1000, 100, 10, or 1 ng/ml): weak

hTRA-8 F(ab′)2 fragment: F(ab′)2 fragment obtained by pepsin digestion of hTRA-8
apoptosis-inducing activity (in words) (BxPC-3 cells; 1000, 100, 10, or 1 ng/ml): hardly exhibited an apoptosis-inducing activity

hTRA-8 Fab′ fragment: Fab′ obtained by reducing hTRA-8 F(ab′)2 with DTT
apoptosis-inducing activity (in words) (BxPC-3 cells; 1000, 100, 10, or 1 ng/ml): hardly exhibited an apoptosis-inducing activity

hTRA-8: antibody obtained by humanizing mouse anti-human DR5 antibody TRA-8; heavy chain SEQ ID NO: 1, light chain SEQ ID NO: 2
apoptosis-inducing activity (in words) [3]: weak | apoptosis-inducing activity (in words) (BxPC-3 cells; uncross-linked with secondary antibody): weak | apoptosis-inducing activity (in words) [4]: weak

B1: DSPE-PEG2000-modified hHFE7A Fullbody of Example 50 (antibody, human IgG1, kappa, V domains shown)
VH: QVQLVQSGAEVKKPGASVKVSCKASGYTFTSYWMQWVKQAPGQGLEWMGEIDPSDSYTNYNQKFKGKATLTVDTSTSTAYMELSSLRSEDTAVYYCARNRDYSNNWYFDVWGEGTLVTVSS
VL: EIVLTQSPGTLSLSPGERATLSCKASQSVDYDGDSYMNWYQQKPGQAPRLLIYAASNLESGIPDRFSGSGSGTDFTLTISRLEPEDFAVYYCQQSNEDPRTFGQGTKLEIKR
modifications: DSPE-PEG2000 on thiolated Lys (residue and chain not specified)
EC50 (concentration exhibiting 50% cell viability), Jurkat cells, Test Example 21 (human Fas): 6.94 ng/mL | EC50 relative to Ab, Jurkat cells, Test Example 21 (human Fas): > 144 fold (control antibody EC50 / modified antibody EC50)

B2: anti-human Fas antibody hHFE7A (humanized HFE7A), Fullbody (antibody, human IgG1, kappa, V domains shown)
VH: B1 VH
VL: B1 VL
Cross-linked Antibody EC50, Jurkat cells, Test Example 21 (human Fas): > 1000 ng/mL
